Source: patent publication US7659246B2, “Treatment of osteoarthritis” (Promics Pty Limited, priority 2002, dated 2010)

Tests used:
dermal Arthus reaction = experiment: Reverse passive dermal Arthus reaction in the rat; type: in vivo; conditions: intravenous, oral and topical pretreatment
[1] = tested on: antigen-induced arthritis of the knee joint; experiment: Rat monoarticular antigen-induced arthritis; type: in vivo
Procedure: Female Wistar rats (150-250 g) were obtained from the Central Animal Breeding House, University of Queensland. […] Each rat received a subcutaneous injection of this suspension (0.5 mL) on days 1 and 7. On day 12-28, rats were separated into separate cages, and body weight and food and water intake monitored daily. Rats received either ordinary tap water or drinking water containing AcF-[OPdChaWR] (1). […] On day 14, rats were anaesthetised and their hind limbs shaven. […] Rats were euthanased on day 28, and whole blood collected into an Eppendorf tube and allowed to spontaneously clot on ice. Blood samples were centrifuges (11,000 rpm×3 min) and serum collected and stored at −20° C. until analysis of serum cytokines using an ELISA. Each knee capsule was lavaged with 100 μL saline, and the total cell count determined using a haemocytometer. In addition, an aliquot of the knee joint lavage fluid was dropped onto a glass slide, and allowed to air dry. Once dry, cells were stained with a differential stain (Diff Quick) and a differential cell count was performed using a 40× dry lens microscope. The remaining lavage fluids from each joint were stored at −20° C. until later analysis of intra-articular cytokine levels using an ELISA. Each knee joint was severed, trimmed leaving only the area of interest and the skin was split with a scalpel blade. Knee samples were stored in 10% buffered formalin for >10 d. Knees were then rinsed with distilled water and placed in a saturated solution of EDTA solution for 21 d for decalcification before being embedded in paraffin wax. Knee tissue samples were prepared using standard histological techniques as described in Example 1, and stained using an haematoxylin and eosin stain. Histological slides were analysed in a blind fashion. […] In no samples was there evidence of significant bone erosion. Samples were thawed on the day of ELISA analysis, and serum or intra-articular lavage fluid TNFα and IL-6 concentrations were determined from a standard curve, using an ELISA as described in Example 1.

induced osteoarthritis = experiment: Induced osteoarthritis in dogs (cruciate ligament transection); type: in vivo, dog
Procedure: Four healthy dogs were obtained from a group of pound dogs destined for euthanasia. The dogs were acclimatised to the experimental canine ward for 7 days before the experiment commenced. Dogs were housed individually and fed on a mixture of dry dog food, canned dog food and occasional raw bones. They were walked for 10 minutes twice daily throughout the trial. The dogs were of age and sex as follows:
PMX53 was synthesised by the Institute of Molecular Bioscience at the University of Queensland. The drug was dissolved in 30% polyethylene glycol 400 (PEG 400) in normal saline. The solution was made to a concentration of 3 mg/ml. The placebo vehicle was 30% PEG 400 in saline. All treatments were sterilised by filtration and stored at 4° C. The dogs were given the drug or placebo at a dose rate of 1 ml/10 kg body weight. The treatments were assigned to the dogs in a random fashion. The drug containers were marked so that the attendants who scored the gait were unaware of the treatment given to each dog.
The cruciate ligament of the left stifle (knee) joint was transected surgically by an experienced specialist surgeon. The incision in the skin was approximately 2 centimeters long. The dogs were given postoperative pain relief, including epidural analgesia and opioids. At 24 hours after the surgery all dogs were limping. No supplementary analgesic therapy was deemed necessary after day 1. All dogs tolerated the procedure very well.
The drug was given as a subcutaneous injection (0.3 mg/kg) into the loose skin on the dorsum of the neck once daily. […] Dogs were assessed twice daily for lameness while they were walked. The scoring was done by at least two people.

osteoarthritis [2] = experiment: Clinical trial of PMX53 in arthritic dogs; type: in vivo, dog
Source text: A single oral dose of the drug appears to be effective for at least 3-4 days, even in the most severe case. […] The individual cases are listed below.

osteoarthritis [3] = experiment: Clinical trial of PMX53 in arthritic dogs; type: in vivo, dog; conditions: dogs with osteoarthritis; sc injection
[4] = dogs, day 28, compared to arthritic controls, FIG. 7

For `CC(=O)N[C@@H](Cc1ccccc1)C(=O)N[C@H]1CCCNC(=O)[C@H](CCCNC(=N)N)NC(=O)[C@H](Cc2c[nH]c3ccccc23)NC(=O)[C@@H](CC2CCCCC2)NC(=O)[C@@H]2CCCN2C1=O` [PMX53, AcF-[OPdChaWR]], the “rise in circulating TNFα associated with a dermal Arthus reaction” value (dermal Arthus reaction; rat serum, FIG. 2) was “inhibition of the rise in circulating TNFα”, the “vascular leakage associated with a dermal Arthus reaction” value (dermal Arthus reaction; rat, Evans blue absorbance at 650 nm, FIG. 1) was “inhibition of the vascular leakage” and the “right knee joint IL-6 level in joint lavage” value ([1]; FIG. 5) was “inhibition”. The “right knee joint TNFα level in joint lavage” value ([1]; FIG. 5) was “inhibition”, the “arthritic right knee joint swelling” value ([1]; given orally on Days -2 to +14, FIG. 4) was “inhibition of arthritic right knee joint swelling” and the cartilage erosion (induced osteoarthritis; dog #2 (drug treated), also seen in placebo dog #4, day 28) was “mild cartilage erosion”. The “time of treatment to improvement in the degree of lameness” value (induced osteoarthritis; dogs n=2, 0.3 mg/kg sc once daily, placebo 10-13 days, FIG. 6b) was 4 to 6 days, the “clinical impression of ability to walk” value (induced osteoarthritis; dogs, 0.3 mg/kg sc once daily) was “clearly improved the ability of the dogs to walk” and the “gait at the end of the trial” value (induced osteoarthritis; dogs, 0.3 mg/kg sc once daily, day 28) was “relatively sound”. For the same compound, the “blood biochemistry and haematology” value (induced osteoarthritis; dogs, before surgery and at day 28) was “No abnormalities were detected”, the “fibrosis of the joint (histopathology)” value (induced osteoarthritis; [4]) was “reduced fibrosis” and the “thickening of the synovial membrane (histopathology)” value (induced osteoarthritis; [4]) was “reduced thickening of the synovial membrane”. The discomfort when injected (induced osteoarthritis; dogs, sc in 30% PEG 400 in saline, drug and placebo alike) was “mild discomfort”, the “site of injection at post mortem” value (induced osteoarthritis; dogs, sc, dorsum of the neck, day 28) was “no abnormalities” and the recovery from surgery (induced osteoarthritis; dogs, versus placebo-treated dogs) was “recovered from surgery more rapidly”. The “joint pain on manipulation” value (osteoarthritis [2]; Case #1) was “no joint pain on manipulation”, the morning stiffness (osteoarthritis [2]; Case #1) was “no morning stiffness” and the “range of joint movement” value (osteoarthritis [2]; Case #1) was “not improved”. For the same compound, the “time to very noticeable improvement after injection” value (osteoarthritis [2]; Case #1, 0.3 mg/kg subcutaneously) was ≤ 24 h, the improvement after treatment (osteoarthritis [2]; Case #1, 1 mg/kg oral once daily, then 0.3 mg/kg sc once daily) was “marked” and the side effects (osteoarthritis [2]; Case #1, injections for 12 months) was “no apparent side effects”. The “attitude (owner report)” value (osteoarthritis [2]; Case #2) was “noticeable improvement in attitude”, the lameness (osteoarthritis [2]; Case #2, 1 mg/kg orally 4 weeks, then 0.3 mg/kg sc once daily) was “did not improve” and the response to therapy (osteoarthritis [2]; Case #3, 1 mg/kg per day orally, then 0.3 mg/kg sc as required, no NSAIDs) was “responded very well”. For the same compound, the side effects (osteoarthritis [2]; Case #3, after 9 months of treatment) was “no side effects”, the “control of clinical signs” value (osteoarthritis [2]; Case #4 (rheumatoid arthritis), 0.3 mg/kg SC once a week alone) was “did not completely control the clinical signs” and the “clinical result in combination with prednisolone” value (osteoarthritis [2]; Case #4, PMX53 once a week with prednisolone 2.5 mg PO once every second day) was “excellent results”. For the same compound, the “duration of effect of a single oral dose” value (osteoarthritis [2]; dogs with osteoarthritis, oral) was 3 to 4 days, the side effects (osteoarthritis [2]; dogs, up to 12 months treatment) was “No side effects” and the “duration of effects of one injection” value (osteoarthritis [3]) was “last for weeks”.
